What was measured:
p75NTR = assay: Proteolytic processing of p75NTR (Western blot, immunofluorescence, cell fractionation); format: cell-based, rat
Procedure: Primary cultures from choroid plexus epithelial cells from P3-P5 Wistar rats were prepared as described previously. Cells were grown to confluence for 5-7 days and serum starved for 2 hours. Cultures were maintained at 37°C in a humidified atmosphere containing 5% CO2, and cultivated for 7 days prior to experimentation. Human analogue peptides corresponding to Aβ1-40 and scrambled Aβ1-40 (AnaSpec, Inc.) were added. […] For ICD p75NTR detection primary cultures cells proteasome inhibitor epoxomycin (1 μM) (Sigma) was applied 1.5 hours prior to Aβ treatment.
For Western blot analysis cultures cells were washed once with ice-cold PBS and lysed in PIK buffer (150 mM NaCl, 20 mM TrisHCl pH 7.4, 1% NP40 and protease inhibitors: 1 μg/mL aprotinin, 1 μg/mL leupeptin and 1 μg/mL phenylmethylsulfonyl fluoride, PMSF). For cell fractionation cells were lysed with C buffer (10 mM HEPES, 60 mM KCl, 1 mM EDTA, 0.075% Triton X100, 1 mM DTT with protease inhibitors. The pellet nuclei was obtained by centrifugation 325 g, 4 minutes and resuspended in NB buffer (20 mM TrisHCl pH 8, 420 mM NaCl, 15 mM MgCl2, 0.2 mM EDTA, 25% Glicerol and protease inhibitors). Thereafter, the nuclei supernatant were obtained after centrifugation 9000 g, 10 minutes. After running the samples in acrylamide gels, proteins were transferred (immobilon, Bio-Rad) and membranes were incubated with the corresponding primary at 4°C overnight. Afterwards, membranes were washed and incubated with secondary antibodies. Membranes were washed several times with Tween-TBS and developed with ECL plus (Amersham). Western blot membranes were re-blotted with unrelated proteins (α-actin) as an internal standard and normalized for protein load. Densitometric analysis was performed using ImageJ software (NIH Image). A representative blot is shown from a total of at lest three independent experiments.
Immunocytochemistry was performed with primary cultures from choroid plexus plated on 20 mm coverslips and fixed. Rat and human choroid plexus were also fixed with 4% paraformaldehyde and processed for histochemical analysis. […]

[1] = tested on: choroid plexus epithelial cells; assay: Cell death quantification with Cell Death Detection ELISAPLUS kit; format: cell-based, rat; details: primary choroid plexus epithelial cells, Aβ40 5 mg/ml, 24 h, ELISA PLUS kit
Procedure: Primary cultures from choroid plexus epithelial cells from P3-P5 Wistar rats were prepared as described previously. Cells were grown to confluence for 5-7 days and serum starved for 2 hours. Cultures were maintained at 37°C in a humidified atmosphere containing 5% CO2, and cultivated for 7 days prior to experimentation. Human analogue peptides corresponding to Aβ1-40 and scrambled Aβ1-40 (AnaSpec, Inc.) were added. 24 hours after stimulation, cells were either fixed for immunocytochemical analysis or homogenized for immunoblot determination. For ICD p75NTR detection primary cultures cells proteasome inhibitor epoxomycin (1 μM) (Sigma) was applied 1.5 hours prior to Aβ treatment.
For cell death quantification, after incubation for 24 h with Aβ40 (5 mg/ml), choroid plexus epithelial cells in vitro were measured with Cell Death Detection ELISAPLUS kit (Roche Diagnostics) as described previously.

Question: How did the “release of p75NTR-ICD fragment (19 KDa)” value (p75NTR; Aβ1-40 2.5 μg/mL for 15, 30 and 60 minutes, proteasome inhibitor pre-treatment, Western blot with antibody 9992) turn out when “Aβ1-40: Human analogue peptides corresponding to Aβ1-40 (AnaSpec, Inc.)” was run?
Answer: induced a release of ICD fragment at 15 and 30 minutes

Question: And the “nuclear accumulation of p75NTR-ICD, immunofluorescence” value (p75NTR; Aβ1-40 2.5 μg/mL, 60 minutes, proteasome inhibitor 1.5 hours before, confocal microscopy)?
Answer: considerable accumulation of p75NTR-ICD occurred in the majority of nuclei

Question: And the “p75NTR-ICD 19 KDa band in nuclear extracts” value (p75NTR; Aβ1-40 for 15, 30 and 60 minutes, nuclear and cytoplasmic extracts, Western blot with antibody 9992)?
Answer: enriched in nuclear extracts

Question: What about the “increase of cell death upon control cells” value [1] of the same substance?
Answer: 29%

Reference: PMC3103472, “The p75 neurotrophin receptor localization in blood-CSF barrier: expression in choroid plexus epithelium” (BMC Neuroscience, 2011)
